Test results reported in patent US20260183270A1, “PHARMACEUTICAL COMPOSITION COMPRISING AAK1 INHIBITOR” (Xizang Haisco Pharmaceutical Co., Ltd., priority 2022, published 2026).

Assays:
[1] = Pharmacokinetic test of dogs; format: in vivo; conditions: beagle dogs, i.g. (3 mg/kg)
Procedure: Experimental animals: male beagle dogs, about 8 to 11 kg, 6 beagle dogs/compound, purchased from Beijing Marshall Biotechnology Co., Ltd.
Experimental method: on the day of the experiment, 12 beagle dogs were randomly grouped according to their body weights. The animals were fasted with water available for 12 to 14 h one day before the administration and were fed 4 h after the administration. Administration was performed as per Table 2.
Before and after the administration, 1 ml of blood was taken from the jugular veins or limb veins, and placed in an EDTAK2 centrifuge tube. Centrifugation was performed at 5000 rpm at 4° C. for 10 min, and plasma was collected. Blood sampling time points for both the LX9211 intravenous administration group and intragastric administration group include: 0 min, 5 min, 15 min, 30 min, 1 h, 2 h, 4 h, 6 h, 8 h, 10 h, 12 h, and 24 h, and blood sampling time points for both the compound 9 intravenous administration group and intragastric administration group include: 0 min, 5 min, 15 min, 30 min, 1 h, 2 h, 4 h, 6 h, 8 h, 10 h, 12 h, 24 h, and 48 h. Before analysis and detection, all samples were stored at −80° C., and the samples were quantitatively analyzed by LC-MS/MS.

[2] = system: SNL-induced mouse model of neuropathic pain; assay: Spinal nerve ligation (SNL)-induced mouse model of neuropathic pain, mechanical pain threshold (Von Frey); format: in vivo, C57BL/6J mice; conditions: for Course of analgesic efficacy over time / Effect on pain threshold (MPT) of mice after SNL modeling: 10 mg/kg intragastric; for Course of analgesic efficacy over time: 1 to 6 hours after administration; for Effect on pain threshold (MPT) of mice after SNL modeling: single administration, 1, 3 and 6 hours after administration
Description: Male C57BL/6J mice (8 weeks old) purchased from Jinan Pengyue Experimental Animal Breeding Co., Ltd. were adaptively raised for one week and then the models were established. The specific establishment method comprises the following steps: • 1) disinfecting the surgical instrument and ligature; • 2) anesthetizing the mice with isoflurane and then placing the mice on the operating table in the prone position; • 3) shaving the fur near the hip bones of the mice and preparing the skin, and making an incision of about 2 cm along the spine; • 4) isolating the fascia along the spine, performing blunt dissection of the muscles, and exposing the transverse process of L5; • 5) carefully cutting the transverse process of L5 with forceps and exposing the L5 spinal nerve; • 6) carefully isolating the L5 nerve with a glass dissecting needle, and ligating the L5 nerve with a 5-0 ligature; and • 7) suturing the muscles and skin and disinfecting same with iodophor.
The mice that were unsuccessful in modeling were eliminated the next day after modeling (marker for successful modeling: mice with their hind paws curled up). After modeling, the mice were stroked for 3 to 5 minutes every day to ensure that the animals were familiar with the experimenter, and then the mice were placed on a metal pain measuring frame for 40 to 60 minutes of adaptation. After 3 days of acclimatization, Von Frey filaments (Aesthesio®; 0.16 g, 0.4 g, 0.6 g, 1.0 g, 1.4 g and 2.0 g) were used to test the pre-administration baseline values of the animals (Ascending testing approach). Each animal was tested twice and average values were taken, with intervals of at least 5 minutes. The animals were grouped according to the baseline values (10 animals per group). After the grouping, LX-9211 (1 and 10 mg/kg), compound 2 (1 and 10 mg/kg) or vehicle (40% PEG-400+10% ethanol+15% Tween 80+35% physiological saline) was administered intragastrically. The mice were tested for the mechanical pain threshold (MPT) at 1, 3 and 6 hours after the administration. Time-MPT curve was plotted using GraphPad 8.3.0, and statistical analysis was performed.

[3] = Mouse brain/blood ratio test; format: in vivo, ICR mice; conditions: mice
Procedure: male ICR mice, 20 to 25 g, 9 mice/compound. purchased from Chengdu Ddossy Experimental Animals Co., Ltd.
on the day of the experiment, 18 ICR mice were randomly grouped according to their body weights. The animals were fasted with water available for 12 to 14 h one day before the administration and were fed 4 h after the administration.
After intragastric administration, whole blood and brain tissue were collected at 0.5 h, 4 h and 24 h, and the whole blood was centrifuged to separate the plasma. The brain tissue was rinsed with cold physiological saline to remove the residual blood on the surface, drained out and then homogenized. Before analysis and detection, all samples were stored at −80 C, and the samples were quantitatively analyzed by LC-MS/MS.

[4] = molecular target: T1, AAK1 (Homo sapiens, UniProt Q2M2I8); assay: In vitro AAK1 enzyme activity assay (ADP-Glo); format: biochemical; conditions: read-out: Inhibitory activity against AAK1 IC50
T1 construct: purchased Signalchem A01-11G-10
T1 sequence (Q2M2I8 27-365 limits assumed): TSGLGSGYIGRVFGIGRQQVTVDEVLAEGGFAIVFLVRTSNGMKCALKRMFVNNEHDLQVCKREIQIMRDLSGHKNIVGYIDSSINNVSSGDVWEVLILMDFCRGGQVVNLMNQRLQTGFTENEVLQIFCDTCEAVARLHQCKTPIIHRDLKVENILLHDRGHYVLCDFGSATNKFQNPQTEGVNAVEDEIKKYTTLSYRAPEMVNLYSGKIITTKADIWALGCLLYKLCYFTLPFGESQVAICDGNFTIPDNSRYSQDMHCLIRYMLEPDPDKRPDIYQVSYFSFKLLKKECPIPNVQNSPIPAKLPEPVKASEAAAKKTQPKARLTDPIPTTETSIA
Procedure: Compound stock solution (concentration: 10 mM, dissolved in DMSO) was diluted with DMSO to 0.2 mM and then diluted with DMSO in 5-fold gradient to obtain compound solutions with 10 concentrations. Subsequently, the compound solutions with different concentrations were diluted 50-fold in 1× kinase reaction buffer (containing 40 mM Tris, 20 mM MgCl2, 0.1% BSA and 0.5 mM DTT) for later use. AAK1 (Signalchem, Cat #A01-11G-10) was diluted with 1× kinase reaction buffer to 2-fold the final concentration (final concentrations: 30 nM and 28 nM). AAK1 was added to a 384-well white plate at 2 μL/well, and the compounds were then added at 1 μL/well. The plate was sealed with a plate-sealing film, centrifuged at 1000 rpm for 30 seconds and then placed at room temperature for 10 minutes. […] The RLU (Relative luminescence unit) signal values were read using a Biotek multimode microplate reader and the percent inhibition was calculated according to the following formula: [1−(LUMcompound−LUMpositive control)/(LUMnegative control−LUMpositive control)]×100. IC50 values were calculated using Graphpad 7.0 software using a four-parameter non-linear fit equation.

[5] = molecular target: T2, hERG potassium channel (Homo sapiens, UniProt Q12809); assay: Test for hERG potassium ion channel (manual whole cell patch-clamp, CHO cells); format: cell-based
T2 construct: expressed in transfected cells
T2 sequence (Q12809 whole entry): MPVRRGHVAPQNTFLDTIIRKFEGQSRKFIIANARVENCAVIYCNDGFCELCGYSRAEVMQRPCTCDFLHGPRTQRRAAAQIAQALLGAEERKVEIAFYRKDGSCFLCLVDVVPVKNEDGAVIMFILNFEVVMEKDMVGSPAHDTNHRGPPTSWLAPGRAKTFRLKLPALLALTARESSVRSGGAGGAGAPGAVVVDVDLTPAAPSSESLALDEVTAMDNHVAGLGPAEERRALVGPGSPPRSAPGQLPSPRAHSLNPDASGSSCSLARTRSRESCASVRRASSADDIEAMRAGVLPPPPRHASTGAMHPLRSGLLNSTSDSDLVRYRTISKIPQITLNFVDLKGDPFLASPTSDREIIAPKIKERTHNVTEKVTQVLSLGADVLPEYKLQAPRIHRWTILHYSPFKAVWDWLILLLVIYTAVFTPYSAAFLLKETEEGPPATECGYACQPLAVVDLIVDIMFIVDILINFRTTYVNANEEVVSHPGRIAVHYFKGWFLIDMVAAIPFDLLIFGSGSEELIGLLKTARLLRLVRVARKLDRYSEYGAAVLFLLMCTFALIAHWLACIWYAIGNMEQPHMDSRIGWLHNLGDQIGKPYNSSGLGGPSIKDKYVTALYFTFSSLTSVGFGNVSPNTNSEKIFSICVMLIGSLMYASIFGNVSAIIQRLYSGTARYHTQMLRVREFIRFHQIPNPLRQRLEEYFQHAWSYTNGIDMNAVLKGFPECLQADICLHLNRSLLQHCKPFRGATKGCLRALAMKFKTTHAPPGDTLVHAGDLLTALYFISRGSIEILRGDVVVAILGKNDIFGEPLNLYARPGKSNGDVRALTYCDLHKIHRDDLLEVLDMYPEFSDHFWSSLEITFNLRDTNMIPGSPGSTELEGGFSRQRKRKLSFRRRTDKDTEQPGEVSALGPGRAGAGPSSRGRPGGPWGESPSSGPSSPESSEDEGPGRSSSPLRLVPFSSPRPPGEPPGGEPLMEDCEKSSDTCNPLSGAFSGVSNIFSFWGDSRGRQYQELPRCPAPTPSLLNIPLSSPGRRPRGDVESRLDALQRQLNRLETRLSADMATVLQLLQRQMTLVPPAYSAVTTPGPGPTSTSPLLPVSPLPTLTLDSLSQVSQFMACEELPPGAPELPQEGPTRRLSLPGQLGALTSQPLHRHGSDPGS
Description: Experimental platform: electrophysiological manual patch-clamp system
Cell line: Chinese hamster ovary (CHO) cell line stably expressing hERG potassium ion channel
Experimental method: in CHO (Chinese Hamster Ovary) cells stably expressing hERG potassium channel, the whole cell patch-clamp technique was used to record hERG potassium channel current at room temperature. The glass microelectrode was made of a glass electrode blank (BF150-86-10, Sutter) by a puller. The tip resistance after filling the liquid in the electrode was about 2-5 MΩ. The glass microelectrode can be connected to the patch-clamp amplifier by inserting the glass microelectrode into an amplifier probe. The clamping voltage and data recording were controlled and recorded by the pClamp 10 software through a computer. The sampling frequency was 10 kHz, and the filtering frequency was 2 kHz. […]
Data processing: data analysis processing was carried out by using pClamp 10, GraphPad Prism 5 and Excel software. The inhibition degree of hERG potassium current (peak value of hERG tail current induced at −50 mV) at different compound concentrations was calculated by the following formula: […]
Compound IC50 was calculated using GraphPad Prism 5 software by fitting according to the following equation: […]

SMILES | F [1] [%] | Course of analgesic efficacy over time [2] | Effect on pain threshold (MPT) of mice after SNL modeling [2] | Brain tissue AUC0-t ([3]; i.g. (10 mg/kg)) [ng·h/g] | IC50 [4] [nM] | Efficacy compared with LX-9211 ([2]; at 3 and 6 hours after the administration) | Pharmacodynamic activity as an analgesic compared with LX-9211 ([2]; overall conclusion) | Kp ([3]; male, ICR, mouse, brain/plasma, po, i.g. (10 mg/kg)) | AUC(0-t) ([3]; male, ICR, mouse, plasma, po, i.g. (10 mg/kg), read-out: Plasma AUC0-t) [ng·h/mL] | Brain penetrability (in words) [3] | inhibition at 40 µM ([5]; human, CHO cells stably expressing hERG potassium channel, at 40 μM, read-out: Inhibition rate at the highest concentration tested (hERG potassium channel current)) [%] | IC50 ([5]; read-out: IC50 (hERG potassium channel current)) [nM]
CC(C)C[C@](C)(N)COc1ccc(-c2ccnc(C(F)F)c2)nc1C(F)F [LX-9211, reference compound] | 22.2 ± 8.1 | efficacy gradually decreased thereafter | effectively increased the pain threshold | 110424 | – | – | – | – | – | – | – | –
COC(=O)Nc1cc(-c2ccc(OC[C@@](C)(N)CC(C)(C)F)c(C(F)F)n2)ccn1 [Compound 9] | 113 ± 6.9 | – | – | – | – | – | – | – | – | – | – | –
COC(=O)Nc1cc(-c2ccc(OC[C@@](C)(N)CC(C)(C)F)c(C)n2)ccn1 [Compound 10] | – | – | – | – | 13.7 | – | – | – | – | – | – | –
C=C(C)CC(C)(N)COc1ccc(-c2ccnc(C(F)F)c2)nc1C(F)F (single isomer, unassigned) [Compound 2] | – | tended to be stable | effectively increased the pain threshold | 36853 | 10.9 | better efficacy than LX-9211 | better pharmacodynamic activity than LX-9211 | 64.5 | 572 | high brain penetrability | 86.6 ± 1.77 | 8750
